The source of these data is patent US11286247B2, “Acryloyl-containing nuclear transport regulators and uses thereof” (WIGEN BIOMEDICINE TECHNOLOGY (SHANGHAI) CO., LTD., priority 2019, dated 2022).

Data set [1] has as its system MDA-MB-231 cells (breast cancer cells). The experiment in a line: Cancer cell proliferation assay, MDA-MB-231. In kind it is cell-based. The note with it: Homo sapiens, MDA-MB-231, 72 h; three days incubation, absorbance 570 nm; read-out: IC50 (μM) MDA-MB-231. Here is the method:
(§1) BxPC-3 cells (pancreatic cancer) and MDA-MB-231 cells (breast cancer cells) were harvested from exponential phase cultures and seeded in 96-well plates at a cell density of 2×10^4 per well. After overnight attachment, compounds including positive controls were applied to cells at five concentrations and incubated for three days. During the last four hours of incubation, 20 μL of 5 mg/mL […] was added followed by the further addition of 100 μL DMSO. The plates were subsequently shook for 10 minutes to dissolve insoluble purple formazan. Absorbance (A) at a wavelength of 570 nm was quantified. Percentage of inhibition was used for the calculation of IC50 based on the bliss method.

Another data set has as its target T1, CRM1 (Homo sapiens, UniProt O14980).
T1 construct: The nuclear localization of Rev protein depends on CRM1; endogenous in cells; host or cells: U2OS cells stably or transiently expressing Rev-GFP (reporter cargo)
The experiment in a line: Rev-GFP nuclear export assay. The note with it: U2OS cells expressing Rev-GFP, 1 hour incubation, nuclear retention of Rev-GFP. Type of data set: cell-based. On the procedure: The Rev protein from HIV contains nuclear export sequence (NES) at its C terminus and nuclear localization sequence (NLS) at its N-terminus. The nuclear localization of Rev protein depends on CRM1. U2OS cells expressing Rev protein fused with GFP (Rev-GFP) were plated in black 384 plates with clear bottom one day prior to treatment. Compounds were serially diluted 2-fold from 40 μM with DMEM in 384 plates, and then incubated with U2OS cells for an hour. Cells were fixed with 3.7% formaldehyde afterwards and nuclei were stained with Hoechst33258. The nuclear retention of Rev-GFP was examined, and IC50 was calculated.

Data set [2] relates to BxPC-3 cells (pancreatic cancer). The experiment in a line: Cancer cell proliferation assay, BxPC-3. Type of data set: cell-based. The note with it: Homo sapiens, BXPC-3, 72 h; three days incubation, absorbance 570 nm; read-out: IC50 (μM) BxPC-3. On the procedure: as §1
Data set [3] in a line: In vivo pharmacokinetic analysis. The note with it: ICR, mouse; mice, 5 mg/kg, oral gavage in 0.5% CMC, plasma. On the procedure:
A group of 9 ICR mice received 5 mg/kg of compound in 0.5% CMC by oral gavage. Blood was taken before treatment and at 5 min, 30 min, 1, 2, 4, 8, 12 and 24 h after treatment. 80 μL of whole blood was sampled (n=3 at each time point) via retro-orbital bleeds or cardiac puncture. The blood sample was collected into EDTA tubes and plasma were obtained by centrifugation at 1500-1600 rpm for 10 min at 4° C. After centrifugation, plasma sample was transferred to a new tube and stored at −60 to −90° C. for future analysis. Plasma concentration of (compounds was quantified by a method based on liquid chromatography coupled to tandem mass-spectrometric detections (LC/MS/MS). Noncompartmental pharmacokinetics parameters were calculated.

T1 sequence (O14980 whole entry): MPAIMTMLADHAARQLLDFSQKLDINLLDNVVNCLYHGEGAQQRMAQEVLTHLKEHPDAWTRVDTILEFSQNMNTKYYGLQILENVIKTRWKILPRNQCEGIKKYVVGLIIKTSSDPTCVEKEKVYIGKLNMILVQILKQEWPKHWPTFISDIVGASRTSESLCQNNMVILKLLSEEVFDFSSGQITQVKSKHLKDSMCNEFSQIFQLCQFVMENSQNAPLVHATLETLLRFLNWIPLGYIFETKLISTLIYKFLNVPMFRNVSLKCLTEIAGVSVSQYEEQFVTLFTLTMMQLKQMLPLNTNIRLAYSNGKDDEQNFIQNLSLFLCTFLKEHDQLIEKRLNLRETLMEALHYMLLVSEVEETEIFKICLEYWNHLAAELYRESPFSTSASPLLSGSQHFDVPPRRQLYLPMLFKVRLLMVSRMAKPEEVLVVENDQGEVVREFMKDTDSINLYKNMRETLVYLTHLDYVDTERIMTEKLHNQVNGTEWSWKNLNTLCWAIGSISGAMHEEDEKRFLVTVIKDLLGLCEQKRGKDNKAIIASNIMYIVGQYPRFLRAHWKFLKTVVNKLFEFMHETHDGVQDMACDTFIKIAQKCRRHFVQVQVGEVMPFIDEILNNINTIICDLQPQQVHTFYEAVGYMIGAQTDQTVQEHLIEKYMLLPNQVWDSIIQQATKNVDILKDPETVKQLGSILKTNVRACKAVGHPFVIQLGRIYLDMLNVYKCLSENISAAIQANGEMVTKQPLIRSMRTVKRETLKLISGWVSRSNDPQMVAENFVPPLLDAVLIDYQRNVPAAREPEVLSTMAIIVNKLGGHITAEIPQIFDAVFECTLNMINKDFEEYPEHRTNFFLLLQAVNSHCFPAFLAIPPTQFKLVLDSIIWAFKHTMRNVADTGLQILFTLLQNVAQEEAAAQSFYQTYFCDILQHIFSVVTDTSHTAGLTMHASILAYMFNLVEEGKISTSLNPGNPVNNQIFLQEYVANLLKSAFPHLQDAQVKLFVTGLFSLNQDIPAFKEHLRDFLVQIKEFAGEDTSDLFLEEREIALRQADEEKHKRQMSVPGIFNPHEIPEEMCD

One may read the IC50 as the concentration at which inhibition is half-maximal. As to `O=C(/C=C\n1cnc(-c2cc(C(F)(F)F)cc(C(F)(F)F)c2)n1)NN1C(=O)[C@H]2C=C[C@@H]1C2` [Compound 30, (Z)-3-(3-(3,5-bis(trifluoromethyl)phenyl)-1H-1,2,4-triazol-1-yl)-N-((1S,4R)-3-oxo-2-azabicyclo[2.2.1]hept-5-en-2-yl)acrylamide], the 50% inhibitory concentration (IC50) is 0.515 µM in data set [1], less than 1000 nM against CRM1 and 0.392 µM in data set [2].
The corresponding values for `O=C(/C=C\n1cnc(-c2cc(C(F)(F)F)cc(C(F)(F)F)c2)n1)N1CCCN1c1cnccn1` [Compound 96, (Z)-3-(3-(3,5-bis(trifluoromethyl)phenyl)-1H-1,2,4-triazol-1-yl)-1-(2-(pyrazin-2-yl)pyrazolidin-1-yl)prop-2-en-1-one] are 0.675 µM, less than 1000 nM and 0.334 µM.
In the same order, the values of `CCOC1=CC(=O)N(NC(=O)/C=C\n2cnc(-c3cc(C(F)(F)F)cc(C(F)(F)F)c3)n2)C1` [Compound 80, (Z)-3-(3-(3,5-bis(trifluoromethyl)phenyl)-1H-1,2,4-triazol-1-yl)-N-(4-ethoxy-2-oxo-2,5-dihydro-1H-pyrrol-1-yl)acrylamide] are 0.266 µM, less than 1000 nM and 0.145 µM.
Turning to `O=C(/C=C\n1cnc(-c2cc(C(F)(F)F)cc(C(F)(F)F)c2)n1)NN1CC2CCCCC2C1=O` (stereo not drawn) [Compound 28, (Z)-3-(3-(3,5-bis(trifluoromethyl)phenyl)-1H-1,2,4-triazol-1-yl)-N-(1-oxooctahydro-2H-isoindol-2-yl)acrylamide], the concentration for half-maximal inhibition (IC50) in data set [1] was 0.24 µM; against CRM1, 1000 to 10000 nM; in data set [2], 0.769 µM.
In the same order, the values of `CCC1=C(C)CN(NC(=O)/C=C\n2cnc(-c3cc(C(F)(F)F)cc(C(F)(F)F)c3)n2)C1=O` [Compound 6, (Z)-3-(3-(3,5-bis(trifluoromethyl)phenyl)-1H-1,2,4-triazol-1-yl)-N-(3-ethyl-4-methyl-2-oxo-2,5-dihydro-1H-pyrrol-1-yl)acrylamide] are 0.487 µM, less than 1000 nM and 0.471 µM.
For `O=C(/C=C\n1cnc(-c2cc(C(F)(F)F)cc(C(F)(F)F)c2)n1)N1CCC(=O)N1Cc1ccccc1` [Compound 67, (Z)-2-benzyl-1-(3-(3-(3,5-bis(trifluoromethyl)phenyl)-1H-1,2,4-triazol-1-yl)acryloyl)pyrazolidin-3-one], the IC50 in data set [1] was 0.965 µM; against CRM1, less than 1000 nM; in data set [2], 0.483 µM.
In the same order, the values of `O=C(/C=C\n1cnc(-c2cc(C(F)(F)F)cc(C(F)(F)F)c2)n1)NN1C(=O)[C@H]2CC[C@@H]1C2` [Compound 32, (Z)-3-(3-(3,5-bis(trifluoromethyl)phenyl)-1H-1,2,4-triazol-1-yl)-N-((1R,4S)-3-oxo-2-azabicyclo[2.2.1]heptan-2-yl)acrylamide] are 0.277 µM, less than 1000 nM and 0.134 µM.
Regarding `O=C(/C=C\n1cnc(-c2cc(C(F)(F)F)cc(C(F)(F)F)c2)n1)NN1CCC=CC1=O` [Compound 88, (Z)-3-(3-(3,5-bis(trifluoromethyl)phenyl)-1H-1,2,4-triazol-1-yl)-N-(6-oxo-3,6-dihydropyridin-1(2H)-yl)acrylamide], the results for the concentration for half-maximal inhibition (IC50) (in data set [1]; against CRM1; in data set [2]) were 0.41 µM, less than 1000 nM and 0.259 µM, respectively.
The corresponding values for `CC1CCN(NC(=O)/C=C\n2cnc(-c3cc(C(F)(F)F)cc(C(F)(F)F)c3)n2)C1=O` (stereo not drawn) [Compound 9, (Z)-3-(3-(3,5-bis(trifluoromethyl)phenyl)-1H-1,2,4-triazol-1-yl)-N-(3-methyl-2-oxopyrrolidin-1-yl)acrylamide] are 0.504 µM, less than 1000 nM and 0.334 µM.
The corresponding values for `CC(C)N1C(=O)CCN1C(=O)/C=C\n1cnc(-c2cc(C(F)(F)F)cc(C(F)(F)F)c2)n1` [Compound 65, (Z)-1-(3-(3-(3,5-bis(trifluoromethyl)phenyl)-1H-1,2,4-triazol-1-yl)acryloyl)-2-isopropylpyrazolidin-3-one] are 0.055 µM, less than 1000 nM and 0.168 µM.
The corresponding values for `O=C(/C=C\n1cnc(-c2cc(C(F)(F)F)cc(C(F)(F)F)c2)n1)NN1CCCCCC1=O` [Compound 4, (Z)-3-(3-(3,5-bis(trifluoromethyl)phenyl)-1H-1,2,4-triazol-1-yl)-N-(2-oxoazepan-1-yl)acrylamide] are 0.034 µM, less than 1000 nM and 0.238 µM.
With `CC1=CC(=O)N(NC(=O)/C=C\n2cnc(-c3cc(C(F)(F)F)cc(C(F)(F)F)c3)n2)CC1` [Compound 89, (Z)-3-(3-(3,5-bis(trifluoromethyl)phenyl)-1H-1,2,4-triazol-1-yl)-N-(4-methyl-6-oxo-3,6-dihydropyridin-1(2H)-yl)acrylamide], the 50% inhibitory concentration (IC50) in data set [1] is 0.277 µM; at CRM1, less than 1000 nM; in data set [2], 0.184 µM.
The corresponding values for `O=C(/C=C\n1cnc(-c2cc(C(F)(F)F)cc(C(F)(F)F)c2)n1)NN1CC(OCC(F)(F)F)=CC1=O` [Compound 83, (Z)-3-(3-(3,5-bis(trifluoromethyl)phenyl)-1H-1,2,4-triazol-1-yl)-N-(2-oxo-4-(2,2,2-trifluoroethoxy)-2,5-dihydro-1H-pyrrol-1-yl)acrylamide] are 0.214 µM, less than 1000 nM and 0.344 µM.
The corresponding values for `[2H]C([2H])([2H])OC1=CC(=O)N(NC(=O)/C=C\n2cnc(-c3cc(C(F)(F)F)cc(C(F)(F)F)c3)n2)C1` [Compound 82, (Z)-3-(3-(3,5-bis(trifluoromethyl)phenyl)-1H-1,2,4-triazol-1-yl)-N-(4-(methoxy-d3)-2-oxo-2,5-dihydro-1H-pyrrol-1-yl)acrylamide] are 0.102 µM, less than 1000 nM and 0.016 µM.
For orientation: AUC(0-t) means exposure summed from dosing to a finite time, without extrapolation to infinity. The low end stands for low exposure, the high end for high exposure. What is called Cmax is the peak of the concentration-time curve. As a reminder, the MRT is the average time that molecules of a dose stay in the body. Usually Tmax stands for the time at which the peak concentration occurs. By half-life is commonly meant how long it takes for the measured level to halve. Low values mean rapid decline, high ones slow decline. Turning to `O=C(/C=C\n1cnc(-c2cc(C(F)(F)F)cc(C(F)(F)F)c2)n1)NN1CCCCC1=O` [Compound 3, (Z)-3-(3-(3,5-bis(trifluoromethyl)phenyl)-1H-1,2,4-triazol-1-yl)-N-(2-oxopiperidin-1-yl)acrylamide], in data set [3], the AUC(0-t) came to 5810 ng·h/mL, the maximum concentration (Cmax) is 499 ng/mL, the mean residence time (MRT) turned out to be 7.86 h and the Tmax was determined as 1 h. This compound also gave a half-life in data set [3] of 3.31 h.
In the same order, the values of `O=C(/C=C\n1cnc(-c2cc(C(F)(F)F)cc(C(F)(F)F)c2)n1)NN1CCC2(CC2)C1=O` [Compound 18, (Z)-3-(3-(3,5-bis(trifluoromethyl)phenyl)-1H-1,2,4-triazol-1-yl)-N-(4-oxo-5-azaspiro[2.4]heptan-5-yl)acrylamide] are 3100 ng·h/mL, 320 ng/mL, 6.17 h, 0.5 h and 3.12 h.
For `O=C(/C=C\n1cnc(-c2cc(C(F)(F)F)cc(C(F)(F)F)c2)n1)NN1CC(O)CC1=O` (stereo not drawn) [Compound 15, (Z)-3-(3-(3,5-bis(trifluoromethyl)phenyl)-1H-1,2,4-triazol-1-yl)-N-(4-hydroxy-2-oxopyrrolidin-1-yl)acrylamide], the IC50 is 1.23 µM in data set [1] and 0.352 µM in data set [2].
As to `O=C(/C=C\n1cnc(-c2cc(C(F)(F)F)cc(C(F)(F)F)c2)n1)N1CCCN1C(=O)C1CC1` [Compound 98, (Z)-3-(3-(3,5-bis(trifluoromethyl)phenyl)-1H-1,2,4-triazol-1-yl)-1-(2-(cyclopropanecarbonyl)pyrazolidin-1-yl)prop-2-en-1-one], the IC50 in data set [1] was 0.487 µM; at CRM1 it was less than 1000 nM; in data set [2], 0.302 µM.
For `O=C(/C=C\n1cnc(-c2cc(C(F)(F)F)cc(C(F)(F)F)c2)n1)Nn1ccccc1=O` [Compound 56, (Z)-3-(3-(3,5-bis(trifluoromethyl)phenyl)-1H-1,2,4-triazol-1-yl)-N-(2-oxopyridin-1(2H)-yl)acrylamide], the IC50 in data set [1] was 0.382 µM; against CRM1, less than 1000 nM; in data set [2] it was 0.449 µM.
The corresponding values for `O=C(/C=C\n1cnc(-c2cc(C(F)(F)F)cc(C(F)(F)F)c2)n1)NN1CC[C@H](O)C1=O` [Compound 10, (S,Z)-3-(3-(3,5-bis(trifluoromethyl)phenyl)-1H-1,2,4-triazol-1-yl)-N-(3-hydroxy-2-oxopyrrolidin-1-yl)acrylamide] are 0.519 µM, 1000 to 10000 nM and 0.527 µM.
